# “And” between values parts separate entries of the source, which are not always exact repeats. Identical values can stand only once.
# Tests used:
# HCT116 cells [1] = experiment: Inhibition of topotecan induced G2 arrest in vitro (FACS); type: cell-based; conditions: for inhibition of topotecan induced G2 arrest: 24 h
# Description: (§3) The compounds were added to the cells after G2 arrest induced by 18 h topotecan treatment at the indicated concentrations and incubated for a period of 24 h. Cells were then harvested and analyzed by FACS.
# (§4) Fixed cells were centrifuged at 1600 rpm for 5 minutes and the ETOH was decanted. They were then washed with 2 ml of PBS, recentrifuged and decanted. The cells were then stained with propidium iodide. Cell cycle study was performed using a FACSCalibur (Becton Dickinson) using Cell-QuestPro software. Cell cycle distribution was determined using either Modfit (Verity software house, ME, USA) or WinMDI (Joseph Trotter, Scripps Institute) software.
# H460 cells [2] = experiment: as above; type: cell-based; conditions: 24 h
# Description: as §3, §4
# tumor = conditions: 100 and 200 mg/kg, intraperitoneal injection, literature; cited from earlier work
# HCT116 cells [3] = experiment: In vivo hollow fibre PD model, topotecan G2 arrested cells implanted in mice (FACS); conditions: for 0 h G2 % / 24 h % G1 / 24 h % G2 / Δ% G2/ Δ% G1 / SΔ % G2: Control TOP (vehicle); for SΔ % G2: % G2 at 24 h - % G2 at 0 h
# Description: Specifically, HCT116 cells were first arrested at G2 with topotecan (TOP) treatment. At the end of 18 h topotecan treatment, fibres were implanted subcutaneously to mice with 4 fibres per mouse (FIG. 3A). Control fibres without topotecan treatment were also included (FIGS. 3F, G). […] The first injection was administered immediately after fibre implantation while the second injection was given 5 hours later. Mice in the TOP alone control group (n=2) received vehicle (0.9% NaCl) only (FIG. 3D). After implantation, fibres (8 fibres per time point) were retrieved from mice at indicated time points. Cells were then flushed out from the fibres and analyzed by FACS and immunoblotting.
# At indicated time points, fibres were removed from mice, wiped with gauze and placed in petri dishes or 6 well plates containing enough warm media to cover fibres. Both ends of the fibres were then cut open using forceps and scissors. The fibres were flushed twice with a 200 μL pipette filled with medium by inserting into fibre opening. The medium containing the cells were collected and centrifuged for 3-minutes at 1600 rpm. The supernatant was discarded and 1 mL of trypsin was added onto the pellets and mixed until single cell suspension is obtained. Then, 5 mL of serum rich medium was added to the cell suspension and centrifuged. The supernatant was then decanted leaving approximately 200 μL of cell suspension. The suspension was then added. drop wise while vortexing to 5 mL of ice cold 70% ETOH. Cells were then fixed at −20° C. for a minimum of 1 hour. The cells obtained were then processed according to FACS staining protocol. 3-8 fibres from each time point were typically used for FACS analysis.
# H460 cells [4] = experiment: Topotecan induced G2 arrest in vitro (topotecan titration, FACS); type: cell-based
# Description: (§1) To perform the experiments, cells were grown to 50% confluency in 10 cm dishes. The cells were then dosed with topotecan at indicated concentrations for 18 hours. Cells were then harvested and the G2 arrest was analyzed by FACS analysis 24 h later.
# (§2) The cells were then stained with propidium iodide.
# HCT116 cells [5] = experiment: as above; type: cell-based
# Description: as §1, §2
# HCT116 cells [6] = experiment: Double thymidine block and G2 arrest with brief topotecan treatment in vitro; type: cell-based; conditions: 1 h treatment, 24 h after block removal
# Description: We adapted the study of G2 checkpoint regulation to the study of other cell cycle regulation pathways. Cells were first synchronized at the G1/S boundary by means of a double thymidine block (FIG. 7A-F). After synchronization, cells were harvested at indicated time points for observation of cell cycle progression (7B, C). To arrest cells at G2 checkpoint, the synchronized cells were incubated with topotecan at indicated concentrations for 1 h, and the topotecan was added 30 to 60 minutes after the release of double thymidine block. Topotecan treated cells were then harvested 24 h after double thymidine block and analyzed with FACS. Alternatively, at the end of double thymidine block, fibres were implanted to mice subcutaneously (4 fibres per mouse); fibres were retrieved from mice at the specified time points (8 fibres per time point) and analyzed by FACS. Control fibers without double thymidine treatment (8A, F) were also included.
# Cells were plated onto 10-cm dishes on day 1 such that 30% confluence is reached on day 2. In hollow fibre experiments, loaded fibres were made on day 1, and incubated in the dishes overnight. On day 2, thymidine was added to the dishes to a final concentration of 2 mM. […] Cells were harvested 24 hours after the second thymidine treatment, and analyzed by FACS analysis. […]
# [7] = TOP alone (50 nM, 18 h), 30 h, mean
# [8] = TOP alone (50 nM, 18 h), 30 h, single replicates, listed as TOP
smiles,measurement,setting,value
Cn1c(=O)c2c(ncn2C)n(C)c1=O [Caffeine],inhibition of topotecan induced G2 arrest,"HCT116 cells [1]; 4 mM, HCT116",significantly inhibits topotecan induced G2 arrest
same,inhibition of topotecan induced G2 arrest,"H460 cells [2]; 4 mM, H460",significantly inhibits topotecan induced G2 arrest
same,sensitization of tumor to radiotherapy by inhibiting radiation induced G2 arrest,tumor,sensitize tumor to radiotherapy
same,inhibition of topotecan induced G2 arrest in tumor cells in vivo,HCT116 cells [3]; systemic injection to mice,inhibit topotecan induced G2 arrest
Cn1c2ccccc2c2c3c(c4c5ccccc5n(CCC#N)c4c21)CNC3=O [Go6976],inhibition of topotecan induced G2 arrest,"HCT116 cells [1]; 1.3 μM, HCT116 (FIG. 2H)",effectively inhibits G2 arrest
same,"toxicity to cells (microscope, FACS)",HCT116 cells [1]; Go6976 alone at the tested concentration,does not show any signs of toxicity
same,inhibition of topotecan induced G2 arrest,"H460 cells [2]; 5 μM, H460 (FIG. 2D)",effectively inhibits G2 arrest
CC[C@@]1(O)C(=O)OCc2c1cc1n(c2=O)Cc2cc3c(CN(C)C)c(O)ccc3nc2-1 [Topotecan],time at which cells begin to reenter the cell cycle after topotecan treatment,H460 cells [4]; H460,about 7 h
same,concentration that sufficiently arrests cells at the G2 checkpoint,"H460 cells [4]; H460, 18 h treatment",50 nM
same,time at which cells begin to reenter the cell cycle after topotecan treatment,HCT116 cells [5]; HCT116,~9 h
same,minimal concentration required to achieve an efficient G2 arrest,"HCT116 cells [5]; HCT116, 18 h treatment",25 nM
same,G2 arrest of double thymidine block synchronized cells,HCT116 cells [6]; 2 μM,complete G2 arrest
same,S phase arrest of double thymidine block synchronized cells,HCT116 cells [6]; 5 μM,noticeable S phase arrest
same,G2 arrest at 30 hour after implantation,"HCT116 cells [3]; 30 nM topotecan, 30 h",~70%
same,cells arrested at G2/M phase at time 0 h,"HCT116 cells [3]; 50 nM topotecan 18 h, HCT116 in hollow fibres, 0 h",About 90%
same,G2 arrest at 30 hour after implantation,"HCT116 cells [3]; 50 nM topotecan, 30 h",about 90%
same,0 h G2 %,"HCT116 cells [3]; Exp. 1, 0 h",83.00%
same,24 h % G1,"HCT116 cells [3]; Exp. 1, 24 h",23.00%
same,24 h % G2,"HCT116 cells [3]; Exp. 1, 24 h",71.00%
same,Δ% G2/ Δ% G1,"HCT116 cells [3]; Exp. 1, 24 h",3.09
same,SΔ % G2,HCT116 cells [3]; Exp. 1,−12.00%
same,0 h G2 %,"HCT116 cells [3]; Exp. 2, 0 h",69.00%
same,24 h % G1,"HCT116 cells [3]; Exp. 2, 24 h",16.00%
same,24 h % G2,"HCT116 cells [3]; Exp. 2, 24 h",58.00%
same,Δ% G2/ Δ% G1,"HCT116 cells [3]; Exp. 2, 24 h",3.63
same,SΔ % G2,HCT116 cells [3]; Exp. 2,−11.00%
same,"% G1, Mean",HCT116 cells [3]; [7],7.9%
same,"% G2, Mean",HCT116 cells [3]; [7],88.7%
same,"Odd (% G2/% G1), Mean",HCT116 cells [3]; [7],11.4
same,% G1,HCT116 cells [3]; [8],7.3% and 7.2% and 9.0%
same,% G2,HCT116 cells [3]; [8],88.1% and 90.2% and 87.9%
same,Odd (% G2/% G1),HCT116 cells [3]; [8],12.0 and 12.5 and 9.7
same,Odd ratio,"HCT116 cells [3]; TOP alone, reference group",1.0
